# According to patent US12053547B2, “Liposomal compositions and methods of use” (Alastin Skincare, Inc., priority 2018, dated 2024):
# Experiment: log Kow (penetration ability) of test molecules
# Assay type: physicochemical
# Experimental: A water suspension of liposomes was prepared with 1.5% of hydrophilic molecule A or 300 ppm (0.03%) hydrophilic molecule B, and 27% Pro-Lipo™ Neo. […] Molecule B was a hexapeptide (hexapeptide-38) with a molecular weight of (870 g/mol) and a penetration ability log Kow of −1.13. A water solution with 1.5% A or 300 ppm B was used as a control (non-entrapped molecule).
row,Molecule,penetration ability log Kow
1,"Cn1c(=O)c2c(ncn2C)n(C)c1=O [Molecule A, caffeine]",−0.07
2,hexapeptide-38 [Molecule B],−1.13
